Some test systems named below: OVCAR-5; SF-295; NCI-H226; UACC-257; SN12C; U-251; SW-620; SNB-19; HCT-116; SK-MEL-2; UO-31; SF-539; Malme-3M; COLO 205; NCI-H460; K562; HL-60; NCI-H522.
Assay in all cases: NCI anticancer screen, dose series, 48 h

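Tested at 5 concentrations; 48 h exposure; 96-well plates; endpoints linearly interpolated, else capped at highest concentration. Abbreviation: GI50, concentration required for 50% inhibition of growth.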 The source made the active and inactive calls. Cut-off read from the data, not from the text of the source: active = GI50 up to about 1.1 µM and inactive = higher.

These results are taken from ChEMBL document CHEMBL1201862, “PubChem BioAssay data set” (2004).

As for `CCN(CC)c1ccc(/N=C2/C=CC(=O)c3ncccc32)c(C)c1`, the GI50 with OVCAR-5 was 12 µM (inactive); in the experiment on SF-295 it was 10.7 µM (inactive); in the experiment with NCI-H226, 18.5 µM (inactive); with UACC-257, 4.38 µM (inactive); with SN12C it was 7.38 µM (inactive); in the experiment on U-251 it was 6.92 µM (inactive). Also, the GI50 in the experiment with SW-620 is 2.53 µM (inactive); in the experiment on SNB-19, 16.1 µM (inactive); in the experiment with HCT-116 it was 2.47 µM (inactive); in the experiment on SK-MEL-2, 15.1 µM (inactive); with UO-31, 16.6 µM (inactive); with SF-539 it was 5.56 µM (inactive). For the same compound, the GI50 in the experiment on Malme-3M was 3.82 µM (inactive); with COLO 205, 2.18 µM (inactive); with NCI-H460 it was 6.43 µM (inactive); in the experiment with K562, 2.45 µM (inactive); in the experiment on HL-60, 2.19 µM (inactive).
Consider `C/C(CCN(C)C)=N/O`, for which the GI50 with OVCAR-5 was 18.7 µM (inactive); with SF-295, 26.8 µM (inactive); in the experiment on NCI-H226, 30 µM (inactive); in the experiment on UACC-257, 15.7 µM (inactive); in the experiment with SN12C, 14.3 µM (inactive); in the experiment on U-251, 6.59 µM (inactive). Also, the GI50 in the experiment on SW-620 is 2.71 µM (inactive); in the experiment on SNB-19, 35.9 µM (inactive); in the experiment on HCT-116, 0.531 µM (active); in the experiment on SK-MEL-2 it was 16.5 µM (inactive); in the experiment with UO-31, 16 µM (inactive); with SF-539, 1.14 µM (inactive). The GI50 in the experiment with COLO 205 was 0.597 µM (active); in the experiment on NCI-H460, 1.64 µM (inactive); in the experiment with K562, 0.292 µM (active); in the experiment with HL-60 it was 0.281 µM (active).
Turning to `COC(=O)NC(=O)c1cn(CCCOC(=O)CCCCCCCCC(=O)OCCCn2cc(C(=O)NC(=O)OC)c(=O)[nH]c2=O)c(=O)[nH]c1=O`, the GI50 with OVCAR-5 is > 100 µM (inactive); in the experiment on SF-295, 47.3 µM (inactive); in the experiment with NCI-H226, > 100 µM (inactive); in the experiment on UACC-257, > 100 µM (inactive); in the experiment on SN12C it was > 100 µM (inactive); with SW-620, > 100 µM (inactive). For the same compound, the GI50 in the experiment with SNB-19 is 42.4 µM (inactive); with HCT-116, > 100 µM (inactive); in the experiment on SK-MEL-2, > 100 µM (inactive); with UO-31 it was > 100 µM (inactive); in the experiment on SF-539, 71.1 µM (inactive); in the experiment on Malme-3M, > 100 µM (inactive). Also, the GI50 in the experiment on NCI-H460, in the experiment with K562 and with HL-60 was > 100 µM (inactive) each time.
For the compound `O=c1c2cc(Br)cc(Br)c2[nH]c(=S)n1-c1ccccc1`, the GI50 in the experiment on OVCAR-5 was > 100 µM (inactive); with SF-295, > 100 µM (inactive); in the experiment with NCI-H226, 30.2 µM (inactive); in the experiment with UACC-257 it was > 100 µM (inactive); with SN12C it was 78.5 µM (inactive); in the experiment with U-251, 85.5 µM (inactive). Further, the GI50 in the experiment with SW-620 is 71.4 µM (inactive); with SNB-19 it was 60.8 µM (inactive); in the experiment with HCT-116 it was 48.8 µM (inactive); with SK-MEL-2 it was > 100 µM (inactive); in the experiment with UO-31, 40.5 µM (inactive); in the experiment with SF-539, 83 µM (inactive). Besides, the GI50 was 82.4 µM (inactive) with Malme-3M, > 100 µM (inactive) with COLO 205, > 100 µM (inactive) in the experiment on NCI-H460 and 32.4 µM (inactive) in the experiment on K562.
Regarding `O=C(/C=C/c1ccc(OCCCOc2ccc(/C=C/C(=O)c3ccccc3)cc2)cc1)c1ccccc1`, the GI50 is > 100 µM (inactive) in the experiment with SF-295; 36.3 µM (inactive) with NCI-H226; > 100 µM (inactive) with UACC-257; > 100 µM (inactive) in the experiment on SN12C; > 10 µM (inactive) in the experiment on U-251; > 100 µM (inactive) in the experiment on SW-620. Further, the GI50 in the experiment on SNB-19 is 63.2 µM (inactive); in the experiment with HCT-116, 77.4 µM (inactive); in the experiment on SK-MEL-2, > 100 µM (inactive); in the experiment with UO-31, > 100 µM (inactive); in the experiment with SF-539, > 100 µM (inactive); with Malme-3M, > 100 µM (inactive). Also, the GI50 in the experiment with COLO 205, with NCI-H460, with K562 and in the experiment on HL-60 was > 100 µM (inactive) in each case.
Regarding `CCOC(=O)NC(=O)c1cn(CCCO)c(=O)[nH]c1=O`, the GI50 in the experiment on OVCAR-5, in the experiment on SF-295, in the experiment on NCI-H226, in the experiment on UACC-257, in the experiment with SN12C and in the experiment on U-251 was > 100 µM (inactive) each time. Further, the GI50 in the experiment with SW-620, in the experiment with SNB-19, in the experiment with HCT-116, with SK-MEL-2, in the experiment with UO-31 and in the experiment on SF-539 was > 100 µM (inactive) in each case. The GI50 in the experiment on Malme-3M, in the experiment on COLO 205, in the experiment on NCI-H460 and in the experiment with K562 was > 100 µM (inactive) throughout.
With `CC(C(=O)c1ccccc1)C1(O)C(=O)Nc2ccc(Cl)cc21` (stereo not drawn), the GI50 was > 100 µM (inactive) in the experiment with OVCAR-5; > 100 µM (inactive) in the experiment on SF-295; > 100 µM (inactive) with NCI-H226; 31.6 µM (inactive) in the experiment with UACC-257; > 100 µM (inactive) in the experiment with SN12C; 53.8 µM (inactive) in the experiment on U-251. Moreover, the GI50 with SW-620 is 49.1 µM (inactive); with SNB-19 it was > 100 µM (inactive); with HCT-116, > 100 µM (inactive); in the experiment with SK-MEL-2, > 100 µM (inactive); in the experiment on UO-31, 0.469 µM (active); in the experiment on SF-539 it was > 100 µM (inactive). The GI50 in the experiment with Malme-3M, with COLO 205 and in the experiment on NCI-H460 was > 100 µM (inactive) in each case.
With `CSc1nc(NC2OCC(OC(C)=O)C(OC(C)=O)C2OC(C)=O)c2c(OC(C)=O)c(C)c(=O)oc2n1` (stereo not drawn), the GI50 with OVCAR-5, in the experiment with SF-295, with NCI-H226, with UACC-257, with SN12C and with U-251 was > 100 µM (inactive) in each case. For the same compound, the GI50 in the experiment with SW-620, with SNB-19, in the experiment with HCT-116, in the experiment with SK-MEL-2, with UO-31 and in the experiment on SF-539 was > 100 µM (inactive) throughout. Also, the GI50 in the experiment with Malme-3M, in the experiment with COLO 205, in the experiment with NCI-H460, in the experiment with K562 and with HL-60 was > 100 µM (inactive) in each case.
Regarding `CC1=C(C)C(=O)c2c(cc3ccc4ccccc4n23)C1=O`, the GI50 in the experiment on OVCAR-5, in the experiment on SF-295, in the experiment with NCI-H226, in the experiment on SN12C, in the experiment on U-251 and with SW-620 was > 100 µM (inactive) in each case. The GI50 in the experiment on SNB-19, in the experiment on UO-31, with SF-539, in the experiment on Malme-3M, in the experiment on COLO 205 and with NCI-H460 was > 100 µM (inactive) throughout. Further, the GI50 in the experiment with K562 and in the experiment with HL-60 was > 100 µM (inactive) in each case.
`COC(=O)C1C(=O)O[C@@H](c2ccc(OC)cc2)C1C(=O)OC` (stereo partly drawn): the GI50 with OVCAR-5, in the experiment on SF-295, in the experiment on NCI-H226, with UACC-257, in the experiment with SN12C and in the experiment with U-251 was > 100 µM (inactive) each time. The GI50 in the experiment on SW-620, with SNB-19, in the experiment with HCT-116, in the experiment with UO-31, with SF-539 and with Malme-3M was > 100 µM (inactive) in each case. The GI50 in the experiment on COLO 205 and in the experiment on K562 was > 100 µM (inactive) in each case.
Consider `CC1CCP(=O)(c2ccccc2)CC1` (stereo not drawn), for which the GI50 in the experiment with OVCAR-5, in the experiment with SF-295, with UACC-257, in the experiment with SN12C, with U-251 and with SW-620 was > 100 µM (inactive) in each case. Moreover, the GI50 in the experiment with SNB-19, in the experiment with SK-MEL-2, in the experiment on UO-31, in the experiment with SF-539, in the experiment on Malme-3M and with COLO 205 was > 100 µM (inactive) throughout. Moreover, the GI50 with NCI-H460, in the experiment with K562 and in the experiment with HL-60 was > 100 µM (inactive) each time.
Consider `O=C(O)c1ccccc1NS(=O)(=O)c1ccc([N+](=O)[O-])cc1`, for which the GI50 in the experiment on OVCAR-5, in the experiment with SF-295, with NCI-H226, in the experiment with NCI-H522, with UACC-257 and in the experiment with SN12C was > 100 µM (inactive) each time. Moreover, the GI50 with U-251, in the experiment on SW-620, in the experiment with SNB-19, with HCT-116, with SK-MEL-2 and in the experiment on UO-31 was > 100 µM (inactive) in each case. The GI50 in the experiment on SF-539, with Malme-3M, in the experiment on COLO 205, with NCI-H460 and in the experiment with K562 was > 100 µM (inactive) in each case.
